# Laboratory results: patent US20240000872A1, “NOVEL BACTERIOPHAGE THAT LYSES ACINETOBACTER GENUS BACTERIA HAVING RESISTANCE TO ANTIBIOTICS” (priority 2020, published 2024)
# System: Acinetobacter baumannii strains
# Assay: Antibiotic susceptibility test (CLSI disk diffusion test method, read per CLSI 2016)
# Assay type: cell-based
# Description: Strain identification was performed using a kit such as AT 32 GN system (bioMérieux, Marcy l'Etoile, France). […] In Table 2 below, S, I, and R are the results obtained by evaluating susceptibility to the antibacterial agents, in which ‘S’ means susceptible, ‘I’ means intermediate, and ‘R’ means resistant.
# Strain identification was performed using a kit such as ATB 32 GN system (bioMédrieux, Marcy l'Etoile, France). […] In Table 6 below, S, I, and R are the results obtained by evaluating susceptibility to the antibacterial agents, in which ‘S’ means susceptible, ‘I’ means intermediate, and ‘R’ means resistant.
# Strain identification was performed using a kit such as ATB 32 GN system (bioMérieux, Marcy l'Etoile, France). […] In Table 10 below, S, I, and R are the results obtained by evaluating susceptibility to the antibacterial agents, in which ‘S’ means susceptible, T means intermediate, and ‘R’ means resistant.
smiles,measurement,setting,value
"C[C@@H](O)[C@H]1C(=O)N2C(C(=O)O)=C(SCCN=CN)C[C@H]12 [Imipenem, imipenem]",antibiotic susceptibility class,host strain YMC14/01/C29,R
same,antibiotic susceptibility class,host strain YMC14/01/IP122,R
same,antibiotic susceptibility class,host strain YMC14/01/L8,R
same,antibiotic susceptibility class,host strain YMC14/01/P31,R
same,antibiotic susceptibility class,host strain YMC14/01/P117,R
same,antibiotic susceptibility class,host strain YMC14/01/P224,R
same,antibiotic susceptibility class,host strain YMC14/01/P727,R
same,antibiotic susceptibility class,host strain YMC14/01/P728,R
same,antibiotic susceptibility class,host strain YMC14/01/R130,R
same,antibiotic susceptibility class,host strain YMC14/01/R160,R
same,antibiotic susceptibility class,host strain YMC14/01/R198,R
same,antibiotic susceptibility class,host strain YMC14/01/R257,R
same,antibiotic susceptibility class,host strain YMC14/01/R270,R
same,antibiotic susceptibility class,host strain YMC14/01/R324,R
same,antibiotic susceptibility class,host strain YMC14/01/R443,R
same,antibiotic susceptibility class,host strain YMC14/01/R451,R
same,antibiotic susceptibility class,host strain YMC14/01/R560,R
same,antibiotic susceptibility class,host strain YMC14/01/R617,R
same,antibiotic susceptibility class,host strain YMC14/01/R671,R
same,antibiotic susceptibility class,host strain YMC14/01/R732,R
same,antibiotic susceptibility class,host strain YMC14/01/R767,R
same,antibiotic susceptibility class,host strain YMC14/01/R904,R
same,antibiotic susceptibility class,host strain YMC14/01/R905,R
same,antibiotic susceptibility class,host strain YMC14/01/R921,R
same,antibiotic susceptibility class,host strain YMC14/01/R941,R
same,antibiotic susceptibility class,host strain YMC14/01/R958,R
same,antibiotic susceptibility class,host strain YMC14/01/R1006,R
same,antibiotic susceptibility class,host strain YMC14/01/R1199,R
same,antibiotic susceptibility class,host strain YMC14/01/R1659,R
same,antibiotic susceptibility class,host strain YMC14/01/R1722,R
same,antibiotic susceptibility class,host strain YMC14/01/R1752,R
same,antibiotic susceptibility class,host strain YMC14/01/R2429,R
same,antibiotic susceptibility class,host strain YMC14/01/R2572,R
same,antibiotic susceptibility class,host strain YMC14/01/R2855,R
same,antibiotic susceptibility class,host strain YMC14/01/R2945,R
same,antibiotic susceptibility class,host strain YMC14/01/R3007,R
same,antibiotic susceptibility class,host strain YMC14/01/R3129,R
same,antibiotic susceptibility class,host strain YMC14/01/R3317,R
same,antibiotic susceptibility class,host strain YMC14/01/R3474,R
same,antibiotic susceptibility class,host strain YMC14/01/R3574,R
same,antibiotic susceptibility class,host strain YMC14/01/U313,R
same,antibiotic susceptibility class,host strain YMC14/01/U318,R
same,antibiotic susceptibility class,host strain YMC14/02/L18,R
same,antibiotic susceptibility class,host strain YMC14/02/P47,R
same,antibiotic susceptibility class,host strain YMC14/02/R1860,R
same,antibiotic susceptibility class,host strain YMC14/02/R2417,R
same,antibiotic susceptibility class,host strain YMC14/02/R2599,R
same,antibiotic susceptibility class,host strain YMC14/02/R2668,R
same,antibiotic susceptibility class,host strain YMC14/02/R2758,R
same,antibiotic susceptibility class,host strain YMC14/02/R2781,R
same,antibiotic susceptibility class,host strain YMC14/02/R3106,R
same,antibiotic susceptibility class,host strain YMC14/02/R3419,R
same,antibiotic susceptibility class,host strain YMC14/02/U1607,R
same,antibiotic susceptibility class,host strain YMC14/03/L9,R
same,antibiotic susceptibility class,host strain YMC14/03/P471,R
same,antibiotic susceptibility class,host strain YMC14/03/R122,R
same,antibiotic susceptibility class,host strain YMC14/03/R217,R
same,antibiotic susceptibility class,host strain YMC14/03/R380,R
same,antibiotic susceptibility class,host strain YMC14/03/R618,R
same,antibiotic susceptibility class,host strain YMC14/03/R2144,R
same,antibiotic susceptibility class,host strain YMC14/03/U4616,R
same,antibiotic susceptibility class,host strain YMC14/04/R1078,R
same,antibiotic susceptibility class,host strain YMC14/04/R1080,R
same,antibiotic susceptibility S/I/R,host strain YMC14/06/R2359,R
same,susceptibility category (S/I/R),host strain YMC14/06/R2359,R
same,antibiotic susceptibility S/I/R,host strain YMC14/08/R1169,R
same,susceptibility category (S/I/R),host strain YMC14/08/R1169,R
same,antibiotic susceptibility S/I/R,host strain YMC14/08/T90,R
same,susceptibility category (S/I/R),host strain YMC14/08/T90,R
same,antibiotic susceptibility S/I/R,host strain YMC15/02/R436,R
same,susceptibility category (S/I/R),host strain YMC15/02/R436,R
same,antibiotic susceptibility S/I/R,host strain YMC15/02/T28,R
same,susceptibility category (S/I/R),host strain YMC15/02/T28,R
same,antibiotic susceptibility S/I/R,host strain YMC15/03/R1604,R
same,susceptibility category (S/I/R),host strain YMC15/03/R1604,R
same,antibiotic susceptibility S/I/R,host strain YMC15/09/R1869,R
same,susceptibility category (S/I/R),host strain YMC15/09/R1869,R
same,antibiotic susceptibility S/I/R,host strain YMC16/01/P11,R
same,susceptibility category (S/I/R),host strain YMC16/01/P11,R
same,antibiotic susceptibility S/I/R,host strain YMC16/01/R123,R
same,susceptibility category (S/I/R),host strain YMC16/01/R123,R
same,antibiotic susceptibility S/I/R,host strain YMC16/01/R198,R
same,susceptibility category (S/I/R),host strain YMC16/01/R198,R
same,antibiotic susceptibility S/I/R,host strain YMC16/01/R353,R
same,susceptibility category (S/I/R),host strain YMC16/01/R353,R
same,antibiotic susceptibility S/I/R,host strain YMC16/01/R380,R
same,susceptibility category (S/I/R),host strain YMC16/01/R380,R
same,antibiotic susceptibility S/I/R,host strain YMC16/01/R397,R
same,susceptibility category (S/I/R),host strain YMC16/01/R397,R
same,antibiotic susceptibility S/I/R,host strain YMC16/01/R405,R
same,susceptibility category (S/I/R),host strain YMC16/01/R405,R
same,antibiotic susceptibility S/I/R,host strain YMC16/03/R4461,R
same,susceptibility category (S/I/R),host strain YMC16/03/R4461,R
same,antibiotic susceptibility S/I/R,host strain YMC16/05/R2210,R
same,susceptibility category (S/I/R),host strain YMC16/05/R2210,R
same,antibiotic susceptibility S/I/R,host strain YMC16/07/R2512,R
same,susceptibility category (S/I/R),host strain YMC16/07/R2512,R
same,antibiotic susceptibility S/I/R,host strain YMC16/09/R2471,R
same,susceptibility category (S/I/R),host strain YMC16/09/R2471,R
same,antibiotic susceptibility S/I/R,host strain YMC16/10/R2537,R
same,susceptibility category (S/I/R),host strain YMC16/10/R2537,R
same,antibiotic susceptibility S/I/R,host strain YMC16/12/B11422,R
same,susceptibility category (S/I/R),host strain YMC16/12/B11422,R
same,antibiotic susceptibility S/I/R,host strain YMC16/12/B11449,R
same,susceptibility category (S/I/R),host strain YMC16/12/B11449,R
same,antibiotic susceptibility S/I/R,host strain YMC16/12/B13325,R
same,susceptibility category (S/I/R),host strain YMC16/12/B13325,R
same,antibiotic susceptibility S/I/R,host strain YMC16/12/P503,R
same,susceptibility category (S/I/R),host strain YMC16/12/P503,R
same,antibiotic susceptibility S/I/R,host strain YMC16/12/R4637,R
same,susceptibility category (S/I/R),host strain YMC16/12/R4637,R
same,antibiotic susceptibility S/I/R,host strain YMC17/01/B8053,R
same,susceptibility category (S/I/R),host strain YMC17/01/B8053,R
same,antibiotic susceptibility S/I/R,host strain YMC17/01/B10087,R
same,susceptibility category (S/I/R),host strain YMC17/01/B10087,R
same,antibiotic susceptibility S/I/R,host strain YMC17/01/B12075,R
same,susceptibility category (S/I/R),host strain YMC17/01/B12075,R
same,antibiotic susceptibility S/I/R,host strain YMC17/01/B13454,R
same,susceptibility category (S/I/R),host strain YMC17/01/B13454,R
same,antibiotic susceptibility S/I/R,host strain YMC17/01/P518,R
same,susceptibility category (S/I/R),host strain YMC17/01/P518,R
same,antibiotic susceptibility S/I/R,host strain YMC17/01/R2812,R
same,susceptibility category (S/I/R),host strain YMC17/01/R2812,R
same,antibiotic susceptibility S/I/R,host strain YMC17/02/B14,R
same,susceptibility category (S/I/R),host strain YMC17/02/B14,R
same,antibiotic susceptibility S/I/R,host strain YMC17/02/B87,R
same,susceptibility category (S/I/R),host strain YMC17/02/B87,R
same,antibiotic susceptibility S/I/R,host strain YMC17/02/B721,R
same,susceptibility category (S/I/R),host strain YMC17/02/B721,R
same,antibiotic susceptibility S/I/R,host strain YMC17/02/B4039,R
same,susceptibility category (S/I/R),host strain YMC17/02/B4039,R
same,antibiotic susceptibility S/I/R,host strain YMC17/02/B4520,R
same,susceptibility category (S/I/R),host strain YMC17/02/B4520,R
same,antibiotic susceptibility S/I/R,host strain YMC17/02/B4864,S
same,susceptibility category (S/I/R),host strain YMC17/02/B4864,S
same,antibiotic susceptibility S/I/R,host strain YMC17/02/B8414,R
same,susceptibility category (S/I/R),host strain YMC17/02/B8414,R
same,antibiotic susceptibility S/I/R,host strain YMC17/02/P523,R
same,susceptibility category (S/I/R),host strain YMC17/02/P523,R
same,antibiotic susceptibility S/I/R,host strain YMC17/02/R541,R
same,susceptibility category (S/I/R),host strain YMC17/02/R541,R
same,antibiotic susceptibility S/I/R,host strain YMC17/02/R2392,R
same,susceptibility category (S/I/R),host strain YMC17/02/R2392,R
same,antibiotic susceptibility S/I/R,host strain YMC17/03/B4730,R
same,susceptibility category (S/I/R),host strain YMC17/03/B4730,R
same,antibiotic susceptibility S/I/R,host strain YMC17/03/B5000,R
same,susceptibility category (S/I/R),host strain YMC17/03/B5000,R
same,antibiotic susceptibility S/I/R,host strain YMC17/03/P971,R
same,susceptibility category (S/I/R),host strain YMC17/03/P971,R
same,antibiotic susceptibility S/I/R,host strain YMC17/03/R348,R
same,susceptibility category (S/I/R),host strain YMC17/03/R348,R
same,antibiotic susceptibility S/I/R,host strain YMC17/03/R585,R
same,susceptibility category (S/I/R),host strain YMC17/03/R585,R
same,antibiotic susceptibility S/I/R,host strain YMC17/03/R1888,R
same,susceptibility category (S/I/R),host strain YMC17/03/R1888,R
same,antibiotic susceptibility S/I/R,host strain YMC17/03/R3279,R
same,susceptibility category (S/I/R),host strain YMC17/03/R3279,R
same,antibiotic susceptibility S/I/R,host strain YMC17/03/R4077,R
same,susceptibility category (S/I/R),host strain YMC17/03/R4077,R
same,antibiotic susceptibility S/I/R,host strain YMC17/03/R4607,R
same,susceptibility category (S/I/R),host strain YMC17/03/R4607,R
same,antibiotic susceptibility S/I/R,host strain YMC17/04/R488,R
same,susceptibility category (S/I/R),host strain YMC17/04/R488,R
same,antibiotic susceptibility S/I/R,host strain YMC17/04/R640,R
same,susceptibility category (S/I/R),host strain YMC17/04/R640,R
same,antibiotic susceptibility S/I/R,host strain YMC/17/05/R1095,R
same,susceptibility category (S/I/R),host strain YMC/17/05/R1095,R
